These are literature values, as cited in patent EP3856749B1, “WATER-SOLUBLE, NON-AGGREGATED SILICON PHTALGCYANINE COMPOUND HAVING IN VITRO ANTICANCER EFFECT AGAINST CANCER TYPES OF LUNG, LIVER, BREST AND MELANOMA” (Karadeniz Teknik Universitesi, priority 2018, dated 2020).

Structures are written as SMILES.

In the series the test system is cervical cancer cell line (HeLa). The conditions noted are these: cited from earlier work.

Take `c1ccc(C(O[Si]2(OC(c3ccccc3)(c3ccccc3)c3ccncc3)n3c4c5ccccc5c3N=C3N=C(N=c5c6ccccc6c(n52)=NC2=NC(=N4)c4ccccc42)c2ccccc23)(c2ccccc2)c2ccncc2)cc1` [compound 3, axially di-(alpha,alpha-diphenyl-4-pyridylmethoxy) silicon(IV) phthalocyanine]: the “cell survival (photocytotoxicity)” value is listed as 17%.
